Data: patent publication US20250262268A1, “Methods and Compositions for Inhibiting Viral Infection” (New York Genome Center, Inc., priority 2020, published 2025)
“Also recorded” adds a separate entry of the source.

What was measured:
SARS-CoV-2 [1] = test: qPCR of SARS-CoV-2 viral load in non-targeting or PIK3C3 CRISPR-perturbed A549-ACE2 cells treated with PIK3C3 inhibitors; type: cell-based; conditions: 10 μM, 2 hours pretreatment, MOI 0.1, 36 hpi
[2] = test system: primary human CD8+ T-cells; test: T cell activation, intracellular cytokine staining after CD3/CD28 stimulation; type: cell-based; conditions: 10 μM, 1 hour pre-incubation
SARS-CoV-2 [3] = test: qRT-PCR of SARS-CoV-2 viral load in inhibitor-treated A549-ACE2 cells; type: cell-based, SARS-CoV-2 isolate USA-WA1/2020; conditions: 10 μM inhibitor, MOI 0.1, 36 hpi

## Nc1ncc(-c2ccnc(Nc3ccncc3)n2)c(CC2CC2)n1 [PIK-III]
SARS-CoV-2 [1]
  specificity for PIK3C3: viral inhibition in PIK3C3 CRISPR-perturbed versus non-targeting cells: specific

## C[C@@H]1COCCN1c1cc(=O)n2c(n1)N(Cc1cncc(Cl)c1)[C@H](C(F)(F)F)CC2 [SAR405]
SARS-CoV-2 [1]
  specificity for PIK3C3: viral inhibition in PIK3C3 CRISPR-perturbed versus non-targeting cells: greater viral inhibition in PIK3C3 CRISPR-perturbed cells; also recorded: may have some off-target effects

## Cc1cc(Nc2cc(Cl)nc(Oc3ccc([N+](=O)[O-])cc3)n2)n[nH]1 [autophinib, Autophinib]
SARS-CoV-2 [1]
  specificity for PIK3C3: viral inhibition in PIK3C3 CRISPR-perturbed versus non-targeting cells: specific

## CC[C@H](Nc1ncnc2[nH]cnc12)c1nc2cccc(F)c2c(=O)n1-c1ccccc1 [idelalisib, Idelalisib]
[2]
  release of interferon-gamma (IFNγ) by CD8+ T-cells: significant reduction
  release of tumor necrosis factor (TNF) by CD8+ T-cells: significant reduction

## CC/C(=C(\c1ccccc1)c1ccc(OCCN(C)C)cc1)c1ccccc1 [tamoxifen, Tamoxifen]
SARS-CoV-2 [3]
  reduction in SARS-CoV-2 viral load (in words): substantial reduction
[2]
  effect on T-cell activation and cytokine secretion: no effect
